Structures are written as SMILES.

As usually defined, the IC50 is the midpoint of a concentration-inhibition curve.

Test [1] has as its system T47D (PI3Kα H1047R mutant) cells. As to the kind of experiment: CellTiter-Glo 2.0 luminescent cell viability assay, 72 hours, T47D cells. The test is classed as cell-based. As to conditions: Homo sapiens, T47D, 72 h, T47D (PI3Kα H1047R mutant) cells, CellTiter-Glo, approximately 72 hours; read-out: T47D (H1047R mutant) Viability IC50. The gist of the method:
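Cells seeded at 1000 per well overnight were dosed with a 10-concentration, 1:4 series starting at 10 µM and incubated ~72 h at 37° C. Viability was read by CellTiter-Glo 2.0 luminescence after 30 min at room temperature. IC50 came from four-parameter fits of percent vehicle control.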
On the technique in general: In ATP-based viability assays light output follows the ATP content of the culture.

Test [2] concerns SKBR3 (PI3Kα wild type) cells. As to the kind of experiment: CellTiter-Glo 2.0 luminescent cell viability assay, 72 hours, SKBR3 cells. The settings on record: Homo sapiens, SK-BR-3, 72 h, SKBR3 (PI3Kα wild type) cells, CellTiter-Glo, approximately 72 hours; read-out: SKBR3 (WT) Viability IC50. The test is classed as cell-based. The gist of the method: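 Viability measured via CTG luminescence following roughly 72 hours of compound exposure at 37° C. Dosing used a 10 um starting concentration diluted 1:4 over 10 points; percent-of-vehicle data fitted with a variable-slope four-parameter model for IC50.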

Consider `Cc1cc([C@@H](C)Nc2ccccc2C(=O)O)c2nc(N3CC4CC(F)(F)CC4C3)c(C)c(=O)n2c1` (stereo partly drawn) [Example 11-444, 2-(((1R)-1-(2-(5,5-difluorohexahydrocyclopenta[c]pyrrol-2(1H)-yl)-3,7-dimethyl-4-oxo-4H-pyrido[1,2-a]pyrimidin-9-yl)ethyl)amino)benzoic acid], for which the IC50 in test [1] is 0.234 µM; in test [2] it was above 10 µM.
On the same counts, the results for `Cc1cc([C@@H](C)Nc2ccccc2C(=O)O)c2nc(N3CCC(N(C)C)CC3)c(C)c(=O)n2c1` [Example 11-311, (R)-2-((1-(2-(4-(dimethylamino)piperidin-1-yl)-3,7-dimethyl-4-oxo-4H-pyrido[1,2-a]pyrimidin-9-yl)ethyl)amino)benzoic acid] are 3.97 µM and above 10 µM.
On to `Cc1cc([C@@H](C)Nc2ccccc2C(=O)O)c2nc(N3CCC(F)(F)C3)c(C)c(=O)n2c1` [Example 11-140, (R)-2-((1-(2-(3,3-difluoropyrrolidin-1-yl)-3,7-dimethyl-4-oxo-4H-pyrido[1,2-a]pyrimidin-9-yl)ethyl)amino)benzoic acid], for which the results for the IC50 in test [1] and in test [2] were 0.119 µM and above 10 µM, respectively.
In the same order, the values of `Cc1cc([C@@H](C)Nc2ccccc2C(=O)O)c2nc(NCC3CC3(F)F)c(C#N)c(=O)n2c1` (stereo partly drawn) [Example 11-158, 2-(((1R)-1-(3-cyano-2-(((2,2-difluorocyclopropyl)methyl)amino)-7-methyl-4-oxo-4H-pyrido[1,2-a]pyrimidin-9-yl)ethyl)amino)benzoic acid] are 0.167 µM and above 10 µM.
Turning to `COC1CCN(c2nc3c([C@@H](C)Nc4ccccc4C(=O)O)cc(C)cn3c(=O)c2C#N)CC1(F)F` (stereo partly drawn) [Example 11-67, 2-(((1R)-1-(3-cyano-2-(3,3-difluoro-4-methoxypiperidin-1-yl)-7-methyl-4-oxo-4H-pyrido[1,2-a]pyrimidin-9-yl)ethyl)amino)benzoic acid], the half-maximal inhibitory concentration (IC50) in test [1] was 0.144 µM; in test [2], above 10 µM.
In the case of `Cc1cc([C@@H](C)Nc2ccccc2C(=O)O)c2nc(N3CCC(C(F)(F)F)CC3)c(C)c(=O)n2c1` [Example 11-71, (R)-2-((1-(3,7-dimethyl-4-oxo-2-(4-(trifluoromethyl)piperidin-1-yl)-4H-pyrido[1,2-a]pyrimidin-9-yl)ethyl)amino)benzoic acid], the values for the IC50 in test [1] and in test [2] were 0.387 µM and above 10 µM, respectively.
In the same order, the values of `COC1CN(c2nc3c([C@@H](C)Nc4ccccc4C(=O)O)cc(C)cn3c(=O)c2C)C1` [Example 11-112, (R)-2-((1-(2-(3-methoxyazetidin-1-yl)-3,7-dimethyl-4-oxo-4H-pyrido[1,2-a]pyrimidin-9-yl)ethyl)amino)benzoic acid] are 0.184 µM and above 10 µM.
In the case of `Cc1cc([C@@H](C)Nc2ccccc2C(=O)O)c2nc(NCC3(F)CC3)c(C#N)c(=O)n2c1` [Example 11-155, (R)-2-((1-(3-cyano-2-(((1-fluorocyclopropyl)methyl)amino)-7-methyl-4-oxo-4H-pyrido[1,2-a]pyrimidin-9-yl)ethyl)amino)benzoic acid], the IC50 in test [1] was 0.165 µM; in test [2] it was above 10 µM.
In the same order, the values of `Cc1cc([C@@H](C)Nc2ccccc2C(=O)O)c2nc(N3CCC(O)CC3)c(C#N)c(=O)n2c1` [Example 11-312, (R)-2-((1-(3-cyano-2-(4-hydroxypiperidin-1-yl)-7-methyl-4-oxo-4H-pyrido[1,2-a]pyrimidin-9-yl)ethyl)amino)benzoic acid] are 5.08 µM and above 10 µM.
In the case of `Cc1cc([C@@H](C)Nc2ccccc2C(=O)O)c2nc(N3CCC(c4cc[nH]n4)CC3)c(C)c(=O)n2c1` [Example 11-252, (R)-2-((1-(2-(4-(1H-pyrazol-3-yl)piperidin-1-yl)-3,7-dimethyl-4-oxo-4H-pyrido[1,2-a]pyrimidin-9-yl)ethyl)amino)benzoic acid], the IC50 was 0.114 µM in test [1] and above 10 µM in test [2].
On the same counts, the results for `Cc1cc([C@@H](C)Nc2ccccc2C(=O)O)c2nc(N3CCC(F)(F)C[C@H]3C)c(C)c(=O)n2c1` [Example 11-93, 2-(((R)-1-(2-((R)-4,4-difluoro-2-methylpiperidin-1-yl)-3,7-dimethyl-4-oxo-4H-pyrido[1,2-a]pyrimidin-9-yl)ethyl)amino)benzoic acid] are 0.268 µM and above 10 µM.
`Cc1cc([C@@H](C)Nc2ccccc2C(=O)O)c2nc(N3C[C@H]4C[C@@H]3CN4c3ccc(C#N)cc3)c(C#N)c(=O)n2c1` [Example 11-174, 2-(((R)-1-(3-cyano-2-((1R,4R)-5-(4-cyanophenyl)-2,5-diazabicyclo[2.2.1]heptan-2-yl)-7-methyl-4-oxo-4H-pyrido[1,2-a]pyrimidin-9-yl)ethyl)amino)benzoic acid]: the IC50 in test [1] is 0.9 µM; in test [2] it was above 10 µM.
On the same counts, the results for `Cc1cc([C@@H](C)Nc2ccccc2C(=O)O)c2nc(N3CC4CC3CC4C)c(C)c(=O)n2c1` (stereo partly drawn) [Example 10-136, 2-(((1R)-1-(3,7-dimethyl-2-(5-methyl-2-azabicyclo[2.2.1]heptan-2-yl)-4-oxo-4H-pyrido[1,2-a]pyrimidin-9-yl)ethyl)amino)benzoic acid] are 0.0642 µM and above 10 µM.
Take `Cc1cc([C@@H](C)Nc2ccccc2C(=O)O)c2nc(N3C[C@@H]4C[C@H]3CN4c3ccc(C#N)cc3)c(C)c(=O)n2c1` [Example 11-177, 2-(((R)-1-(2-((1S,4S)-5-(4-cyanophenyl)-2,5-diazabicyclo[2.2.1]heptan-2-yl)-3,7-dimethyl-4-oxo-4H-pyrido[1,2-a]pyrimidin-9-yl)ethyl)amino)benzoic acid]: the IC50 was 1.57 µM in test [1] and above 10 µM in test [2].
As for `Cc1cc([C@@H](C)Nc2ccccc2C(=O)O)c2nc(N3CC4CCCCCCC4C3)c(C)c(=O)n2c1` (stereo partly drawn) [Example 11-27, 2-(((1R)-1-(2-(decahydro-2H-cycloocta[c]pyrrol-2-yl)-3,7-dimethyl-4-oxo-4H-pyrido[1,2-a]pyrimidin-9-yl)ethyl)amino)benzoic acid], the half-inhibitory concentration (IC50) was 1.6 µM in test [1] and above 10 µM in test [2].
In the same order, the values of `Cc1cc([C@@H](C)Nc2ccccc2C(=O)O)c2nc(N3CC4(CN(c5ccc(C#N)cc5)C4)C3)c(C#N)c(=O)n2c1` [Example 11-190, (R)-2-((1-(3-cyano-2-(6-(4-cyanophenyl)-2,6-diazaspiro[3.3]heptan-2-yl)-7-methyl-4-oxo-4H-pyrido[1,2-a]pyrimidin-9-yl)ethyl)amino)benzoic acid] are 1.11 µM and above 10 µM.
On to `Cc1cc([C@@H](C)Nc2ccccc2C(=O)O)c2nc(N3C[C@H](C)C(F)(F)C3)c(C)c(=O)n2c1` [Example 11-119, 2-(((R)-1-(2-((S)-3,3-difluoro-4-methylpyrrolidin-1-yl)-3,7-dimethyl-4-oxo-4H-pyrido[1,2-a]pyrimidin-9-yl)ethyl)amino)benzoic acid], for which the half-maximal inhibitory concentration (IC50) in test [1] is 0.132 µM; in test [2], above 10 µM.
In the case of `Cc1cc([C@@H](C)Nc2ccc(Cl)nc2C(=O)O)c2nc(N3CCN(c4ccc(F)cc4)C[C@H]3C)c(C#N)c(=O)n2c1` [Example 11-131, 6-chloro-3-(((R)-1-(3-cyano-2-((R)-4-(4-fluorophenyl)-2-methylpiperazin-1-yl)-7-methyl-4-oxo-4H-pyrido[1,2-a]pyrimidin-9-yl)ethyl)amino)picolinic acid], the IC50 is 0.309 µM in test [1] and above 10 µM in test [2].
Turning to `Cc1cc(C(C)Nc2ccc(C(=O)O)cc2)c2nc(N3CCCCC3)cc(=O)n2c1` (stereo not drawn) [Example 11-388, 4-((1-(7-methyl-4-oxo-2-(piperidin-1-yl)-4H-pyrido [1,2-a]pyrimidin-9-yl)ethyl)amino)benzoic acid], the IC50 in test [1] and in test [2] was above 10 µM in each case.
With `CCN(CC)c1nc2c([C@@H](C)Nc3ccccc3C(=O)O)cc(C)cn2c(=O)c1C#N` [Example 11-320, (R)-2-((1-(3-cyano-2-(diethylamino)-7-methyl-4-oxo-4H-pyrido[1,2-a]pyrimidin-9-yl)ethyl)amino)benzoic acid], the results for the IC50 in test [1] and in test [2] were 0.539 µM and above 10 µM, respectively.
As for `Cc1cc([C@@H](C)Nc2ccccc2C(=O)O)c2nc(N3CCN(c4ccc(C#N)cc4)[C@H](C)C3)c(C#N)c(=O)n2c1` [Example 11-270, 2-(((R)-1-(3-cyano-2-((R)-4-(4-cyanophenyl)-3-methylpiperazin-1-yl)-7-methyl-4-oxo-4H-pyrido[1,2-a]pyrimidin-9-yl)ethyl)amino)benzoic acid], the IC50 was 0.227 µM in test [1] and above 10 µM in test [2].
For `Cc1cc(C(C)Nc2ccccc2C(=O)O)c2nc(N3CCCCC3)c(C3CC3)c(=O)n2c1` (stereo not drawn) [Example 11-413, 2-((1-(3-cyclopropyl-7-methyl-4-oxo-2-(piperidin-1-yl)-4H-pyrido[1,2-a]pyrimidin-9-yl)ethyl)amino)benzoic acid], the IC50 in test [1] is 1.65 µM; in test [2], above 10 µM.
As to `Cc1cc([C@@H](C)Nc2ccccc2C(=O)O)c2nc(N3CCC(C)(C#N)CC3)c(C)c(=O)n2c1` [Example 11-69, (R)-2-((1-(2-(4-cyano-4-methylpiperidin-1-yl)-3,7-dimethyl-4-oxo-4H-pyrido[1,2-a]pyrimidin-9-yl)ethyl)amino)benzoic acid], the IC50 in test [1] is 0.168 µM; in test [2], above 10 µM.
Consider `Cc1cc([C@@H](C)Nc2ccccc2C(=O)O)c2nc(N3CCN(c4ncc(C#N)cn4)CC3)c(C)c(=O)n2c1` [Example 11-258, (R)-2-((1-(2-(4-(5-cyanopyrimidin-2-yl)piperazin-1-yl)-3,7-dimethyl-4-oxo-4H-pyrido[1,2-a]pyrimidin-9-yl)ethyl)amino)benzoic acid], for which the figures for the IC50 in test [1] and in test [2] were 0.119 µM and above 10 µM, respectively.

The values are drawn from patent US20260078120A1, “SUBSTITUTED PYRIDOPYRIMIDINONES” (MIRATI THERAPEUTICS, INC., priority 2022, published 2026).
